# pIC50: −log10 of the molar value.
# System: Phosphorylation of ERK1/2 in AsPC-1 cells
# Test: Phospho-ERK1/2 MSD Assay
# Assay type: cell-based
# Conditions: Homo sapiens, ASPC1, 2 h, read-out: 2 h p-ERK (AsPC-1 cells), IC50, AsPC-1 cells, 2 h compound treatment
# Description: Sixteen hours prior to compound treatment, AsPC-1 cells were seeded in 96-well cell culture plates at a density of 25,000 cells/well and incubated at 37° C., 5% CO2. A compound dose-response titration was diluted in growth media, added to appropriate wells of a cell culture plate, and then incubated at 37° C., 5% CO2 for 2 hours.
row,SMILES,pIC50
1,"CCc1c(F)ccc2cccc(-c3ncc4c(N5CCC[C@@](C)(O)C5)nc(OC[C@@]56CCCN5C[C@H](F)C6)nc4c3F)c12 [Example 48, (R)-1-(7-(8-Ethyl-7-fluoronaphthalen-1-yl)-8-fluoro-2-(((2R,7aS)-2-fluorotetrahydro-1H-pyrrolizin-7a(5H)-yl)methoxy)pyrido[4,3-d]pyrimidin-4-yl)-3-methylpiperidin-3-ol]",6.47
2,"C[C@@]1(O)CCCN(c2nc(OC[C@@]34CCCN3C[C@H](F)C4)nc3c(F)c(-c4cc(O)cc5ccc(F)c(F)c45)ncc23)C1 [Example 59, (R)-1-(7-(7,8-Difluoro-3-hydroxynaphthalen-1-yl)-8-fluoro-2-(((2R,7aS)-2-fluorotetrahydro-1H-pyrrolizin-7a(5H)-yl)methoxy)pyrido[4,3-d]pyrimidin-4-yl)-3-methylpiperidin-3-ol]",7.48
3,"CCc1c(F)ccc2cc(O)cc(-c3ncc4c(N5CC6CC5C(C)(O)C6)nc(OC[C@@]56CCCN5C[C@H](F)C6)nc4c3F)c12 (stereo partly drawn) [Example 71, 2-(7-(8-Ethyl-7-fluoro-3-hydroxynaphthalen-1-yl)-8-fluoro-2-(((2R,7aS)-2-fluorotetrahydro-1H-pyrrolizin-7a(5H)-yl)methoxy)pyrido[4,3-d]pyrimidin-4-yl)-6-methyl-2-azabicyclo[2.2.1]heptan-6-ol]",5.93
4,"CCc1c(F)ccc2cc(O)cc(-c3ncc4c(N5CCC[C@@H](NC(=S)NCCOC)C5)nc(OC[C@@]56CCCN5C[C@H](F)C6)nc4c3F)c12 [Example 74, 1-((R)-1-(7-(8-ethyl-7-fluoro-3-hydroxynaphthalen-1-yl)-8-fluoro-2-(((2R,7aS)-2-fluorotetrahydro-1H-pyrrolizin-7a(5H)-yl)methoxy)pyrido[4,3-d]pyrimidin-4-yl)piperidin-3-yl)-3-(2-methoxyethyl)thiourea]",5.57
5,"CCc1c(F)ccc2cc(O)cc(-c3ncc4c(N5CCC[C@@](C)(NC(=O)OC)C5)nc(OC[C@@]56CCCN5C[C@H](F)C6)nc4c3F)c12 [Example 77, Methyl ((R)-1-(7-(8-ethyl-7-fluoro-3-hydroxynaphthalen-1-yl)-8-fluoro-2-(((2R,7aS)-2-fluorotetrahydro-1H-pyrrolizin-7a(5H)-yl)methoxy)pyrido[4,3-d]pyrimidin-4-yl)-3-methylpiperidin-3-yl)carbamate]",5.82
6,"CCc1c(F)ccc2cc(O)cc(-c3ncc4c(N5CC(n6ccnc6)C5)nc(OC[C@@]56CCCN5C[C@H](F)C6)nc4c3F)c12 [Example 91, 4-(4-(3-(1H-Imidazol-1-yl)azetidin-1-yl)-8-fluoro-2-(((2R,7aS)-2-fluorotetrahydro-1H-pyrrolizin-7a(5H)-yl)methoxy)pyrido[4,3-d]pyrimidin-7-yl)-5-ethyl-6-fluoronaphthalen-2-ol]",5.29
7,"NS(=O)(=O)[C@@H]1CCCN(c2nc(OC[C@@]34CCCN3C[C@H](F)C4)nc3c(F)c(-c4cc(O)cc5ccc(F)c(F)c45)ncc23)C1 [Example 165, (R)-1-(7-(7,8-Difluoro-3-hydroxynaphthalen-1-yl)-8-fluoro-2-(((2R,7aS)-2-fluorotetrahydro-1H-pyrrolizin-7a(5H)-yl)methoxy)pyrido[4,3-d]pyrimidin-4-yl)piperidine-3-sulfonamide]",5.94
8,"CCc1c(F)ccc2cc(O)cc(-c3ncc4c(N5CCC[C@@](C)(O)C5)nc(OC[C@@]56CCCN5C[C@H](F)C6)nc4c3Cl)c12 [Example 168, (R)-1-(8-Chloro-7-(8-ethyl-7-fluoro-3-hydroxynaphthalen-1-yl)-2-(((2R,7aS)-2-fluorotetrahydro-1H-pyrrolizin-7a(5H)-yl)methoxy)pyrido[4,3-d]pyrimidin-4-yl)-3-methylpiperidin-3-ol]",7.47
9,"CCc1c(F)ccc2cc(O)cc(-c3ncc4c(N5CCC[C@@](C)(O)C5)nc(OC[C@@]56CCCN5C[C@H](F)C6)nc4c3C)c12 [Example 169, (R)-1-(7-(8-Ethyl-7-fluoro-3-hydroxynaphthalen-1-yl)-2-(((2R,7aS)-2-fluorotetrahydro-1H-pyrrolizin-7a(5H)-yl)methoxy)-8-methylpyrido[4,3-d]pyrimidin-4-yl)-3-methylpiperidin-3-ol]",7.40
10,"CCc1c(F)ccc2cc(O)cc(-c3cc4nc(OC[C@@]56CCCN5C[C@H](F)C6)nc(N5CCC[C@@](C)(O)C5)c4cn3)c12 [Example 170, (R)-1-(7-(8-Ethyl-7-fluoro-3-hydroxynaphthalen-1-yl)-2-(((2R,7aS)-2-fluorotetrahydro-1H-pyrrolizin-7a(5H)-yl)methoxy)pyrido[4,3-d]pyrimidin-4-yl)-3-methyl-piperidin-3-ol]",7.74

# Now from value to molecule:
row,pIC50,SMILES
1,5.53,"CCc1c(F)ccc2cc(O)cc(-c3ncc4c(N5CCC[C@](C)(N)C5)nc(OC[C@@]56CCCN5C[C@H](F)C6)nc4c3F)c12 [Example 45, 4-(4-((S)-3-Amino-3-methylpiperidin-1-yl)-8-fluoro-2-(((2R,7aS)-2-fluorotetrahydro-1H-pyrrolizin-7a(5H)-yl)methoxy)pyrido[4,3-d]pyrimidin-7-yl)-5-ethyl-6-fluoronaphthalen-2-ol]"
2,6.65,"CCc1c(F)ccc2cc(O)cc(-c3ncc4c(N5CC[C@H](F)[C@H](O)C5)nc(OC[C@@]56CCCN5C[C@H](F)C6)nc4c3F)c12 [Example 47, (3R,4S)-1-(7-(8-Ethyl-7-fluoro-3-hydroxynaphthalen-1-yl)-8-fluoro-2-(((2R,7aS)-2-fluorotetrahydro-1H-pyrrolizin-7a(5H)-yl)methoxy)pyrido[4,3-d]pyrimidin-4-yl)-4-fluoropiperidin-3-ol]"
3,5.96,"CCc1c(F)ccc2cc(O)cc(-c3ncc4c(N5CCC[C@@](C)(NC(C)=O)C5)nc(OC[C@@]56CCCN5C[C@H](F)C6)nc4c3F)c12 [Example 76, N-((R)-1-(7-(8-Ethyl-7-fluoro-3-hydroxynaphthalen-1-yl)-8-fluoro-2-(((2R,7aS)-2-fluorotetrahydro-1H-pyrrolizin-7a(5H)-yl)methoxy)pyrido[4,3-d]pyrimidin-4-yl)-3-methylpiperidin-3-yl)acetamide]"
4,6.61,"CCc1c(F)ccc2cc(O)cc(-c3ncc4c(N5CCC[C@@H](NC(=O)OC)C5)nc(OC[C@@]56CCCN5C[C@H](F)C6)nc4c3F)c12 [Example 78, Methyl ((R)-1-(7-(8-ethyl-7-fluoro-3-hydroxynaphthalen-1-yl)-8-fluoro-2-(((2R,7aS)-2-fluorotetrahydro-1H-pyrrolizin-7a(5H)-yl)methoxy)pyrido[4,3-d]pyrimidin-4-yl)piperidin-3-yl)carbamate]"
5,7.13,"CCc1c(F)ccc2cc(O)cc(-c3ncc4c(N5CCCC(=O)CC5)nc(OC[C@@]56CCCN5C[C@H](F)C6)nc4c3F)c12 [Example 95, 1-(7-(8-Ethyl-7-fluoro-3-hydroxynaphthalen-1-yl)-8-fluoro-2-(((2R,7aS)-2-fluorotetrahydro-1H-pyrrolizin-7a(5H)-yl)methoxy)pyrido[4,3-d]pyrimidin-4-yl)azepan-4-one]"
6,8.10,"CCc1c(F)ccc2cc(O)cc(-c3ncc4c(N5CCCCC(=O)C5)nc(OC[C@@]56CCCN5C[C@H](F)C6)nc4c3F)c12 [Example 127, 1-(7-(8-Ethyl-7-fluoro-3-hydroxynaphthalen-1-yl)-8-fluoro-2-(((2R,7aS)-2-fluorotetrahydro-1H-pyrrolizin-7a(5H)-yl)methoxy)pyrido[4,3-d]pyrimidin-4-yl)azepan-3-one]"
7,6.53,"CCc1c(F)ccc2cc(O)cc(-c3ncc4c(N5CCC[C@@H](CO)C5)nc(OC[C@@]56CCCN5C[C@H](F)C6)nc4c3F)c12 [Example 128, 5-Ethyl-6-fluoro-4-(8-fluoro-2-(((2R,7aS)-2-fluorotetrahydro-1H-pyrrolizin-7a(5H)-yl)methoxy)-4-((R)-3-(hydroxymethyl)piperidin-1-yl)pyrido[4,3-d]pyrimidin-7-yl)naphthalen-2-ol]"
8,6.59,"CCc1c(F)ccc2cc(O)cc(-c3ncc4c(N5CCC=CC(=O)C5)nc(OC[C@@]56CCCN5C[C@H](F)C6)nc4c3F)c12 [Example 134, 1-(7-(8-Ethyl-7-fluoro-3-hydroxynaphthalen-1-yl)-8-fluoro-2-(((2R,7aS)-2-fluorotetrahydro-1H-pyrrolizin-7a(5H)-yl)methoxy)pyrido[4,3-d]pyrimidin-4-yl)-1,2,6,7-tetrahydro-3H-azepin-3-one]"
9,6.76,"CCc1c(F)ccc2cc(O)cc(-c3ncc4c(N5CCCC(O)(C(F)(F)F)C5)nc(OC[C@@]56CCCN5C[C@H](F)C6)nc4c3F)c12 (stereo partly drawn) [Example 156, 1-(7-(8-Ethyl-7-fluoro-3-hydroxy-naphthalen-1-yl)-8-fluoro-2-(((2R,7aS)-2-fluorotetrahydro-1H-pyrrolizin-7a(5H)-yl)methoxy)pyrido[4,3-d]pyrimidin-4-yl)-3-(trifluoromethyl) piperidin-3-ol]"
10,5.91,"CCc1c(F)ccc2cc(O)cc(-c3ncc4c(N5CCCC(O)(C6CC6)C5)nc(OC[C@@]56CCCN5C[C@H](F)C6)nc4c3F)c12 (stereo partly drawn) [Example 157, 3-Cyclopropyl-1-(7-(8-ethyl-7-fluoro-3-hydroxy-naphthalen-1-yl)-8-fluoro-2-(((2R,7aS)-2-fluorotetrahydro-1H-pyrrolizin-7a(5H)-yl)methoxy)pyrido[4,3-d]pyrimidin-4-yl)piperidin-3-ol]"

# Same assay, conditions: Homo sapiens, ASPC1, read-out: 2 h p-ERK (AsPC-1 cells), IC50; AsPC-1 cells, 2 h compound treatment
row,SMILES,pIC50
1,"CCc1c(F)ccc2cc(O)cc(-c3ncc4c(N5CCC[C@@](C)(O)C5)nc(OC[C@@]56CCCN5C[C@H](F)C6)nc4c3F)c12 [Example 38, (R)-1-(7-(8-ethyl-7-fluoro-3-hydroxynaphthalen-1-yl)-8-fluoro-2-(((2R,7aS)-2-fluorotetrahydro-1H-pyrrolizin-7a(5H)-yl)methoxy)pyrido[4,3-d]pyrimidin-4-yl)-3-methyl-piperidin-3-ol]",8.30
2,"CCc1c(F)ccc2cc(O)cc(-c3ncc4c(N5CCC[C@@](C)(O)C5)nc(OC[C@]56CCCN5C[C@H](F)C6)nc4c3F)c12 [Example 53, (R)-1-(7-(8-ethyl-7-fluoro-3-hydroxynaphthalen-1-yl)-8-fluoro-2-(((2R,7aR)-2-fluorotetrahydro-1H-pyrrolizin-7a(5H)-yl)methoxy)pyrido[4,3-d]pyrimidin-4-yl)-3-methylpiperidin-3-ol]",7.89

# Reference: US20250034167A1, “HETEROCYCLIC COMPOUNDS AND METHODS OF USE” (AMGEN INC., priority 2021, published 2025)
